Data published in patent EP2698367A1, “Benzimidazoles for the treatment of cancer” (Max-Planck-Gesellschaft zur Förderung der Wissenschaften …, priority 2012, dated 2014).
pKd: −log10 of the molar value.

biological target: PDEδ farnesyl pocket (Homo sapiens, UniProt O43924); test: Displacement titrations of labeled probe (fluorescence polarization) for the determination of KD values; type: binding; settings: not given
From the text: The resulting solution was serially diluted, holding the concentrations of S54, PDEδ and DMSO constant. The sealed plates were shaken overnight at room temperature and centrifuged at the beginning of the next day. […] For the fitting of the data to a competition model the exact mathematical solution derived from the law of mass action was used as described by Roehrl et al.^3 Fraction bound data was fit using KD2 as the only fitting parameter and total ligand concentration as independent variable (OriginPro8.6, function codec from origin). [formula] • FSB: Fraction bound of fluorescent probe • KD1: Binding constant of fluorescent Probe determined from direct titration • KD2: Fitting parameter (Binding constant of unlabeld competitor) • LST: Total concentration of unlabeld small molecule competitor • RT: Total protein concentration
For the fitting of data to a competition model with cooperative binding of two benzimidazole fragments the program Scientist 3.0 was used. An experimental system was defined as a series of partial equations including the equilibrium relationships between the various species. Anisotropy data was converted to fraction bound and fitting was carried out in anlogy to a previously described set of equilibrium relationships by Goody and coworkers.^4. KD1 = ([A][PDEDf])/([APDED]) [formula] KD2 = ([L^2][PDEDf])/([LPDED]) [formula] • A:equilibrium conentration of free fluorophore • L: equilibrium concentration of free ligand • APDED: equilibrium concentration of bound fluorescent probe • LPDED: equilibrium conentration of bound small molecule • PDEDf: equilibrium conentration of free protein This model was used (together with equations describing the mass balance) to numerically simulate the FSB of fluorophore and compared with the experimental data.
Scientist input file: • // Micromath Scientist Model File • IndVars: LST • DepVars: A,L,APDED,LPDED,PDEDf,FSB • Params: ATOT,PDED,KD1,KD2 • LPDED= L^2*PDEDf/KD2 • APDED=A*PDEDf/KD1 • ATOT=A+APDED • LST=L+LPDED • PDED=PDEDf+APDED+LPDED • 0<A<ATOT • 0<L<LST • 0<PDEDf<PDED • FSB=1-A/ATOT • LST=0
The activity of the compounds was classified according to their Kd for the PDEδ farnesyl pocket into the following ranges: […]

Sequence of PDEδ farnesyl pocket (O43924 whole entry): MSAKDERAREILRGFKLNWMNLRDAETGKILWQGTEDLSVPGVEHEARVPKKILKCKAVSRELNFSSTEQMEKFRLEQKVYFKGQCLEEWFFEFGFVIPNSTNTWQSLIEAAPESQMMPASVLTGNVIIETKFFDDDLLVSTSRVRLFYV

| SMILES | pKd |
| --- | --- |
| Oc1ccc(Cn2c(-c3ccc(O)cc3)nc3ccccc32)cc1 [Compound 15] | 7.00 to 7.60 |
| COc1ccc(Cc2nc3ccccc3n2Cc2ccccc2)cc1 [Compound 27] | 6.00 to 7.00 |
| CC(C)CCn1c(CC(C)(C)C)nc2ccccc21 [Compound 35] | 6.00 to 7.00 |
| c1ccc(Cn2c(CN3CCCCCC3)nc3ccccc32)cc1 [Compound 40] | 6.00 to 7.00 |

same assay, conditions: Kd for the PDEδ farnesyl pocket; read-out: KD

| SMILES | pKd |
| --- | --- |
| CC(C)(C)OC(=O)N1CCC(C(COc2ccc(-c3nc4ccccc4n3Cc3ccccc3)cc2)n2c(-c3ccccc3)nc3ccccc32)CC1 (stereo not drawn) [Compound 08, tert-Butyl-4-(2-(4-(1-benzyl-1H-benzo[d]imidazol-2-yl)phenoxy)-1-(2-phenyl-1H-benzo[d]imidazol-1-yl)ethyl)piperidine-1-carboxylate] | < 6.00 |
| COc1ccccc1OCc1nc2ccccc2n1Cc1ccccc1Cl [Compound 13] | 6.00 to 7.00 |
| C=C(C)Cn1c(-c2ccc(N(C)C)cc2)nc2ccccc21 [Compound 14] | 6.00 to 7.00 |
| COc1cccc(CNC(=O)C2CCN(c3nc4ccccc4n3Cc3ccccc3C)CC2)c1 [Compound 19] | 6.00 to 7.00 |
| CN(CCCNC(=O)C1CCN(c2nc3ccccc3n2Cc2ccc(F)cc2)CC1)C1CCCCC1 [Compound 21] | 6.00 to 7.00 |
| Cc1ccccc1Cn1c(N2CCC(C(=O)O)CC2)nc2ccccc21 [Compound 22] | < 6.00 |
| Cc1ccccc1Cn1c(N2CCC(C(=O)NCCCN3CC(C)CC(C)C3)CC2)nc2ccccc21 (stereo not drawn) [Compound 25] | 6.00 to 7.00 |
| CC(C)Cc1nc2ccccc2n1Cc1ccccc1 [Compound 32] | 6.00 to 7.00 |
| CCc1nc2ccccc2n1Cc1ccccc1F [Compound 33] | 6.00 to 7.00 |
| Cc1cccc(-c2nc3ccccc3n2CCc2ccccc2)c1 [Compound 36] | < 6.00 |
| C#CCn1c(-c2ccccc2Br)nc2ccccc21 [Compound 38] | < 6.00 |
| Clc1cccc(Cn2c(-c3ccco3)nc3ccccc32)c1 [Compound 39] | 6.00 to 7.00 |
| CCCC(O)c1nc2ccccc2n1Cc1c(F)cccc1Cl (stereo not drawn) [Compound 41] | 6.00 to 7.00 |
| Cc1ccc(-c2nc3ccccc3n2Cc2ccc(F)cc2)o1 [Compound 42] | 6.00 to 7.00 |
| Cc1ccc(NC(=O)N2CCN(c3nc4ccccc4n3Cc3ccccc3)CC2)c(C)c1 [Compound 44] | 6.00 to 7.00 |
| COc1cc(OC)cc(C(=O)N2CCN(c3nc4ccccc4n3Cc3ccccc3)CC2)c1 [Compound 45] | 6.00 to 7.00 |
| Cc1ccc(C)c(Cn2c(CCNC(=O)CCCC(C)O)nc3ccccc32)c1 (stereo not drawn) [Compound 47] | < 6.00 |
| Ic1ccc(Cn2c(-c3ccc(I)o3)nc3ccccc32)o1 [Compound 48] | 7.00 to 7.60 |
| O=C(NCCO)C(c1ccccc1)n1c(-c2ccccc2)nc2ccccc21 (stereo not drawn) [Compound 51] | < 6.00 |
| C=CCOc1ccc(-c2nc3ccccc3n2Cc2ccccc2)cc1 [Compound S02, 2-(4-(Allyloxy)phenyl)-1-benzyl-1H-benzo[d]imidazole] | < 6.00 |
| Oc1ccc(-c2nc3ccccc3n2Cc2ccccn2)cc1 [Compound S08, 4-(1-(Pyridin-2-ylmethyl)-1H-benzo[d]imidazol-2-yl)phenol] | < 6.00 |
| O=C(NCc1ccccc1)C(C1CCCCC1)n1c(-c2ccccc2)nc2ccccc21 (stereo not drawn) [Compound S12, N-Benzyl-2-cyclohexyl-2-(2-phenyl-1H-benzo[d]imidazol-1-yl)acetamide] | 6.00 to 7.00 |

Results, then the compound that gave them:

| pKd | SMILES |
| --- | --- |
| < 6.00 | c1ccc(C2Nc3ccccc3-c3nc4ccccc4n32)nc1 (stereo not drawn) [Compound 02, 6-Pyiridyl-5,6-dihydrobenzo[4-5]imidazo[1,2-c]quinazoline] |
| 6.00 to 7.00 | c1ccc(Cn2c(-c3ccc(OCCn4c(-c5ccccc5)nc5ccccc54)cc3)nc3ccccc32)cc1 [Compound 06, 1-Benzyl-2-(4-(2-(2-phenyl-1H-benzo[d]imidazol-1-yl)ethoxy)phenyl)-1H-benzo[d]imidazole] |
| 6.00 to 7.00 | Cc1ccc(OCc2nc3ccccc3n2C(C)c2ccccc2)cc1 (stereo not drawn) [Compound 16] |
| 6.00 to 7.00 | O=C(NCCN1CCCC1)C1CCN(c2nc3ccccc3n2Cc2ccccc2F)CC1 [Compound 17] |
| 7.00 to 7.60 | CCOc1ccc(CNC(=O)C2CCN(c3nc4ccccc4n3Cc3ccc(F)cc3)CC2)cc1 [Compound 20] |
| < 6.00 | CC1CCCN(C(=O)C2CCN(c3nc4ccccc4n3Cc3cccc(F)c3)CC2)C1 (stereo not drawn) [Compound 23] |
| < 6.00 | CCN(CCCNC(=O)C1CCN(c2nc3ccccc3n2Cc2ccc(C)cc2)CC1)c1cccc(C)c1 [Compound 24] |
| 6.00 to 7.00 | c1ccc(CCn2c(-c3ccco3)nc3ccccc32)cc1 [Compound 26] |
| < 6.00 | Cc1ccccc1Cn1c(Cc2ccccc2)nc2ccccc21 [Compound 28] |
| 6.00 to 7.00 | CCCCc1nc2ccccc2n1Cc1ccc(Cl)cc1 [Compound 29] |
| < 6.00 | CCC(CC)c1nc2ccccc2n1Cc1ccccc1 [Compound 30] |
| 6.00 to 7.00 | C=C(C)Cn1c(CC(C)C)nc2ccccc21 [Compound 31] |
| 7.00 to 7.60 | Cc1ccccc1Cn1c(CC(C)(C)C)nc2ccccc21 [Compound 34] |
| 7.00 to 7.60 | CC(C)Cc1nc2ccccc2n1Cc1c(F)cccc1Cl [Compound 37] |
| < 6.00 | Fc1ccc(Cn2c(-c3cccc(Br)c3)nc3ccccc32)cc1 [Compound 43] |
| 6.00 to 7.00 | O=C(c1ccccc1Cl)N1CCN(c2nc3ccccc3n2Cc2ccccc2)CC1 [Compound 46] |
| < 6.00 | COc1cccc(C(=O)C=Cc2nc3ccccc3n2Cc2ccccc2)c1 [Compound 49] |
| 6.00 to 7.00 | COc1ccc(-c2nc3ccccc3n2Cc2c(F)cccc2Cl)cc1 [Compound 50] |
| < 6.00 | C=CCOc1ccc(-c2nc3ccccc3n2Cc2ccccn2)cc1 [Compound S03, 2-(4-(Allyloxy)phenyl)-1-(pyridin-2-ylmethyl)-1H-benzo[d]imidazole] |
| < 6.00 | C=CCOc1ccc(-c2nc3ccccc3n2Cc2ccccc2C)cc1 [Compound S04, 2-(4-(Allyloxy)phenyl)-1-(2-methylbenzyl)-1H-benzo[d]imidazole] |
| 6.00 to 7.00 | C=CCOc1ccc(-c2nc3ccccc3n2Cc2ccc(F)cc2)cc1 [Compound S06, 2-(4-(Allyloxy)phenyl)-1-(4-fluorobenzyl)-1H-benzo[d]imidazole] |
| 7.00 to 7.60 | Oc1ccc(-c2nc3ccccc3n2Cc2ccccc2)cc1 [Compound S07, 4-(1-Benzyl-1H-benzo[d]imidazol-2-yl)phenol] |
| 6.00 to 7.00 | Oc1ccc(-c2nc3ccccc3n2Cc2ccc(F)cc2)cc1 [Compound S09, 4-(1-(4-Fluorobenzyl)-1H-benzo[d]imidazol-2-yl)phenol] |
| < 6.00 | OCC(C1CCCCC1)n1c(-c2ccccc2)nc2ccccc21 (stereo not drawn) [Compound S16, 2-Cyclohexyl-2-(2-phenyl-1H-benzo[d]imidazol-1-yl)ethanol] |

same assay, conditions: read-out: KD

| pKd | SMILES |
| --- | --- |
| 6.00 to 7.00 | O=C(NCCCN1CCN(c2ccc(O)cc2)CC1)C1CCN(c2nc3ccccc3n2Cc2cccc(F)c2)CC1 [Compound 18] |

test system: mCherry-K-Ras in PancTul cells; test: Time series of mCherry-K-Ras redistribution in PancTul cells; type: cell-based, human; settings: 5µM

| SMILES | mCherry-K-Ras redistribution |
| --- | --- |
| c1ccc(Cn2c(-c3ccc(OC[C@H](C4CCNCC4)n4c(-c5ccccc5)nc5ccccc54)cc3)nc3ccccc32)cc1 [(S)-9, (S)-1-Benzyl-2-(4-(2-(2-phenyl-1H-benzo[d]imidazol-1-yl)-2-(piperidin-4-yl)ethoxy)phenyl)-1H-benzo[d]imidazole] | loss of K-Ras spatial organization |

test system: CAPAN-1 cells; test: Real time cell analysis (RTCA) of CAPAN-1 cells; type: cell-based; settings: 5µM, K-Ras dependent pancreatic tumor cell

| SMILES | Proliferation of CAPAN-1 cells |
| --- | --- |
| c1ccc(Cn2c(-c3ccc(OC[C@H](C4CCNCC4)n4c(-c5ccccc5)nc5ccccc54)cc3)nc3ccccc32)cc1 [(S)-9, (S)-1-Benzyl-2-(4-(2-(2-phenyl-1H-benzo[d]imidazol-1-yl)-2-(piperidin-4-yl)ethoxy)phenyl)-1H-benzo[d]imidazole] | inhibited strongly |

test system: Erk; test: Western blot of ERK signaling (Erk phosphorylation) in PANC-TUI cells; type: cell-based, human; settings: 5 µM, EGF, measured by phosphorylation

| SMILES | activation of Erk |
| --- | --- |
| c1ccc(Cn2c(-c3ccc(OC[C@H](C4CCNCC4)n4c(-c5ccccc5)nc5ccccc54)cc3)nc3ccccc32)cc1 [(S)-9, (S)-1-Benzyl-2-(4-(2-(2-phenyl-1H-benzo[d]imidazol-1-yl)-2-(piperidin-4-yl)ethoxy)phenyl)-1H-benzo[d]imidazole] | attenuated activation of Erk |

biological target: interaction of Rheb with PDEδ (Homo sapiens, UniProt O43924); test: not given; settings: 5 µM, live MDCK cells, measured by FLIM
Sequence (O43924 whole entry): as above

| SMILES | interaction between mCitrine-Rheb and mCherry-PDEδ |
| --- | --- |
| c1ccc(Cn2c(-c3ccc(OC[C@H](C4CCNCC4)n4c(-c5ccccc5)nc5ccccc54)cc3)nc3ccccc32)cc1 [(S)-9, (S)-1-Benzyl-2-(4-(2-(2-phenyl-1H-benzo[d]imidazol-1-yl)-2-(piperidin-4-yl)ethoxy)phenyl)-1H-benzo[d]imidazole] | more rapidly (within one minute) and more strongly reduced |

test system: mCherry-K-Ras in Panc1 cells; test: Time series of mCherry-K-Ras redistribution in Panc1 cells; type: cell-based, human; settings: 5µM

| SMILES | mCherry-K-Ras redistribution |
| --- | --- |
| c1ccc(Cn2c(-c3ccc(OC[C@H](C4CCNCC4)n4c(-c5ccccc5)nc5ccccc54)cc3)nc3ccccc32)cc1 [(S)-9, (S)-1-Benzyl-2-(4-(2-(2-phenyl-1H-benzo[d]imidazol-1-yl)-2-(piperidin-4-yl)ethoxy)phenyl)-1H-benzo[d]imidazole] | loss of K-Ras spatial organization |

test system: PANC-TUI cells; test: Real time cell analysis (RTCA) of PANC-TUI cell proliferation; type: cell-based, human; settings: 5µM, K-Ras dependent pancreatic tumor cell
Experimental: To address whether the novel compounds that target the farnesyl binding pocket in PDEδ inhibit the interaction between PDEδ and Ras family proteins in live cells, fluorescence lifetime imaging microscopy (FLIM)-based quantitative fluorescence resonance energy transfer (FRET) measurements were carried out. […] Figure 4: Real time cell analysis (RTCA) of PANC-TUI cell proliferation. PANC-TUI is a K-Ras dependent pancreatic tumor cell.

| SMILES | PANC-TUI cell proliferation |
| --- | --- |
| c1ccc(Cn2c(-c3ccc(OC[C@H](C4CCNCC4)n4c(-c5ccccc5)nc5ccccc54)cc3)nc3ccccc32)cc1 [(S)-9, (S)-1-Benzyl-2-(4-(2-(2-phenyl-1H-benzo[d]imidazol-1-yl)-2-(piperidin-4-yl)ethoxy)phenyl)-1H-benzo[d]imidazole] | stopped proliferating and underwent cell death within a few hours |
